Source: patent publication US8420605B2, “Hydrogel compositions” (The University of Strathclyde, priority 2005, dated 2013)
Ends that are not written are not given here. * marks the point of attachment. Fmoc = O=C(OCC1c2ccccc2-c2ccccc21)*; Cbz = O=C(OCc1ccccc1)*

Tests used:
[1] = Preparation of self-assembled peptide hydrogels by pH adjustment (gel formation); assay type: physicochemical; conditions: for pH: pH at which the gel formed at the indicated concentrations (Table 3)
Protocol: Fmoc peptides (from BACHEM Ltd) were weighed out into 4 ml glass vials. 2 ml purified water was added followed by sonication for 30-60 seconds. 0.5M NaOH solution was added in 50 μl droplets until a clear solution was formed. 0.1M HCl was added to the solution by stepwise addition of 50 μl followed by mixing using a vortex. pH values were estimated by transferring a spatula tip of hydrogel onto universal indicator paper.
Self-assembled scaffolds were prepared by first suspending the Fmoc-dipeptide in purified water. Upon increase of the pH by addition of concentrated NaOH (thus de-protonating the carboxylic acid group) to a value of >8, a clear solution was obtained. To this solution, concentrated hydrochloric acid was added drop wise until the pH of the solution became 7, at which point a clear, self-supporting gel was formed.
Table 3 below identifies various peptide derivatives (incorporating an aromatic stacking ligand) and mixtures thereof that formed gels at a pH of 6-8 at the indicated concentrations: […]

[2] = Xu et al., J. Am. Chem. Soc. 2003, 125, 13680; cited from earlier work
[3] = Preparation of self-assembled peptide hydrogels by pH adjustment (gel formation); assay type: physicochemical
[4] = Hydrogel formation from Fmoc-amino acid/di-peptide combinations (tripeptides); assay type: physicochemical; conditions: Fmoc-AA + di-peptide combination
Text: The inventors thought it would be sensible to retain the two consecutive phenylalanine residues in the peptide, but introduce a third amino acid immediately after the Fmoc cap and before the Phe-Phe. […] In addition, the inventors also made the tripeptide: Fmoc-Leu-Leu-Leu.

Substance | pH [1] | pH value for gelation [2] | Gel formed? [4] | other results
Cbz-Leu-Leu-Leu-OH | 7 | – | – | Gel? ([1]; Component 1 5-20 mM/L, pH 7): ✓
Cbz-Phe-Phe-OH | 6-8 | – | – | Gel? ([1]; Component 1 10-30 mM/L, pH 6-8): ✓
Fmoc-Gly-Gly-OH | 3-5 | 3 | – | Gel? ([3]; Component 1 10-40 mM/L, pH 3-5): ✓
Fmoc-Gly-D-Ala | – | 5 | – | –
Fmoc-Ala-Phe-Phe | – | – | ✓ | –
Fmoc-Phe-Gly-OH | 3-5 | – | – | Gel? ([3]; Component 1 20 mM/L, pH 3-5): ✓
Fmoc-Phe-Phe-Phe-OH | 7 | – | ✓ | Gel? ([1]; Component 1 5-20 mM/L, pH 7): ✓
Fmoc-L-Ala-L-Ala | – | 3 | – | –
Fmoc-Ala-Ala-OH | 3 | – | – | Gel? ([3]; Component 1 40 mM/L, pH 3): ✓
Fmoc-Leu-Gly-OH | 2 | – | – | Gel? ([3]; Component 1 20 mM/L, pH 2): ✓
Fmoc-D-Ala-D-Ala | – | 3 | – | –
Fmoc-Val-Phe-Phe | – | – | ✓ | –
Fmoc-Leu-Phe-Phe | – | – | ✓ | –
Fmoc-Leu-Leu-Leu | – | – | ✓ | –
Fmoc-Gly-L-SER | – | 5 | – | –
